Tests used:
Experiment in all cases: relative viability (nuclei count vs DMSO), 5 days (fraction); higher = more cells survive
201T = tested on: 201T
Method in brief: (§1)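 Lung cancer cell lines, seeded in 1536-well plates, were treated the following day by pin tool with a single drug or with five library-drug doses (not always all listed) in √10 steps on top of a fixed anchor-drug dose. Cells were fixed and nuclei stained in one step after 5 days, and nuclei were counted. Relative viability is the nuclei count for treated wells divided by that for vehicle wells, reported as medians of duplicate plates.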

ABC-1 = tested on: ABC-1
Method in brief: as §1

COR-L 105 = tested on: COR-L 105
Method in brief: as §1

COR-L23 = tested on: COR-L23
Method in brief: as §1

EKVX = tested on: EKVX
Method in brief: as §1

EPLC-272H = tested on: EPLC-272H
Method in brief: as §1

H3255 = tested on: H3255
Method in brief: as §1

HCC-15 = tested on: HCC-15
Method in brief: as §1

HCC-44 = tested on: HCC-44
Method in brief: as §1

HCC-827 = tested on: HCC-827
Method in brief: as §1

LCLC-103H = tested on: LCLC-103H
Method in brief: as §1

NCI-H1437 = tested on: NCI-H1437
Method in brief: as §1

NCI-H1650 = tested on: NCI-H1650
Method in brief: as §1

NCI-H1651 = tested on: NCI-H1651
Method in brief: as §1

NCI-H1792 = tested on: NCI-H1792
Method in brief: as §1

NCI-H1975 = tested on: NCI-H1975
Method in brief: as §1

NCI-H2087 = tested on: NCI-H2087
Method in brief: as §1

NCI-H358 = tested on: NCI-H358
Method in brief: as §1

NCI-H520 = tested on: NCI-H520
Method in brief: as §1

NCI-H647 = tested on: NCI-H647
Method in brief: as §1

NCI-H661 = tested on: NCI-H661
Method in brief: as §1

NCI-H727 = tested on: NCI-H727
Method in brief: as §1

NCI-H838 = tested on: NCI-H838
Method in brief: as §1

UMC-11 = tested on: UMC-11
Method in brief: as §1

## CCCCCCCCCCCC1=C(O)C(=O)C=C(O)C1=O [Embelin] + CS(=O)(=O)N1CCN(Cc2cc3nc(-c4cccc5[nH]ncc45)nc(N4CCOCC4)c3s2)CC1 [Pictilisib] (partner 1 µM)
201T; first compound 0.08 µM
  relative viability: 0.645
201T; first compound 0.8 µM
  relative viability: 0.685
201T; first compound 2.53 µM
  relative viability: 0.649
201T; first compound 8 µM
  relative viability: 0.613
ABC-1; first compound 0.08 µM
  relative viability: 0.876
ABC-1; first compound 0.8 µM
  relative viability: 0.861
ABC-1; first compound 2.53 µM
  relative viability: 0.678
ABC-1; first compound 8 µM
  relative viability: 0.646
COR-L 105; first compound 0.08 µM
  relative viability: 0.338
COR-L 105; first compound 0.8 µM
  relative viability: 0.484
COR-L 105; first compound 2.53 µM
  relative viability: 0.424
COR-L 105; first compound 8 µM
  relative viability: 0.392
COR-L23; first compound 0.08 µM
  relative viability: 0.832
COR-L23; first compound 0.8 µM
  relative viability: 0.958
COR-L23; first compound 2.53 µM
  relative viability: 0.874
COR-L23; first compound 8 µM
  relative viability: 0.93
EKVX; first compound 0.08 µM
  relative viability: 0.481
EKVX; first compound 0.8 µM
  relative viability: 0.437
EKVX; first compound 2.53 µM
  relative viability: 0.406
EKVX; first compound 8 µM
  relative viability: 0.501
EPLC-272H; first compound 0.08 µM
  relative viability: 0.319
EPLC-272H; first compound 0.8 µM
  relative viability: 0.427
EPLC-272H; first compound 2.53 µM
  relative viability: 0.334
EPLC-272H; first compound 8 µM
  relative viability: 0.276
H3255; first compound 0.08 µM
  relative viability: 0.574
H3255; first compound 0.8 µM
  relative viability: 0.62
H3255; first compound 2.53 µM
  relative viability: 0.512
H3255; first compound 8 µM
  relative viability: 0.525
HCC-15; first compound 0.08 µM
  relative viability: 0.736
HCC-15; first compound 0.8 µM
  relative viability: 0.802
HCC-15; first compound 2.53 µM
  relative viability: 0.85
HCC-15; first compound 8 µM
  relative viability: 0.743
HCC-44; first compound 0.08 µM
  relative viability: 0.62
HCC-44; first compound 0.8 µM
  relative viability: 0.61
HCC-44; first compound 2.53 µM
  relative viability: 0.678
HCC-44; first compound 8 µM
  relative viability: 0.7
HCC-827; first compound 0.08 µM
  relative viability: 1.03
HCC-827; first compound 0.8 µM
  relative viability: 1.04
HCC-827; first compound 2.53 µM
  relative viability: 1.16
HCC-827; first compound 8 µM
  relative viability: 1.19
LCLC-103H; first compound 0.08 µM
  relative viability: 0.591
LCLC-103H; first compound 0.8 µM
  relative viability: 0.652
LCLC-103H; first compound 2.53 µM
  relative viability: 0.614
LCLC-103H; first compound 8 µM
  relative viability: 0.677
NCI-H1437; first compound 0.08 µM
  relative viability: 0.469
NCI-H1437; first compound 0.8 µM
  relative viability: 0.48
NCI-H1437; first compound 2.53 µM
  relative viability: 0.5
NCI-H1437; first compound 8 µM
  relative viability: 0.364
NCI-H1650; first compound 0.08 µM
  relative viability: 0.695
NCI-H1650; first compound 0.8 µM
  relative viability: 0.715
NCI-H1650; first compound 2.53 µM
  relative viability: 0.632
NCI-H1650; first compound 8 µM
  relative viability: 0.504
NCI-H1651; first compound 0.08 µM
  relative viability: 0.577
NCI-H1651; first compound 0.8 µM
  relative viability: 0.647
NCI-H1651; first compound 2.53 µM
  relative viability: 0.769
NCI-H1651; first compound 8 µM
  relative viability: 0.607
NCI-H1792; first compound 0.08 µM
  relative viability: 0.299
NCI-H1792; first compound 0.8 µM
  relative viability: 0.37
NCI-H1792; first compound 2.53 µM
  relative viability: 0.281
NCI-H1792; first compound 8 µM
  relative viability: 0.333
NCI-H1975; first compound 0.08 µM
  relative viability: 0.343
NCI-H1975; first compound 0.8 µM
  relative viability: 0.332
NCI-H1975; first compound 2.53 µM
  relative viability: 0.288
NCI-H1975; first compound 8 µM
  relative viability: 0.288
NCI-H2087; first compound 0.08 µM
  relative viability: 0.885
NCI-H2087; first compound 0.8 µM
  relative viability: 0.96
NCI-H2087; first compound 2.53 µM
  relative viability: 1.24
NCI-H2087; first compound 8 µM
  relative viability: 0.827
NCI-H358; first compound 0.08 µM
  relative viability: 0.425
NCI-H358; first compound 0.8 µM
  relative viability: 0.39
NCI-H358; first compound 2.53 µM
  relative viability: 0.315
NCI-H358; first compound 8 µM
  relative viability: 0.294
NCI-H520; first compound 0.08 µM
  relative viability: 0.346
NCI-H520; first compound 0.8 µM
  relative viability: 0.386
NCI-H520; first compound 2.53 µM
  relative viability: 0.418
NCI-H520; first compound 8 µM
  relative viability: 0.361
NCI-H647; first compound 0.08 µM
  relative viability: 0.423
NCI-H647; first compound 0.8 µM
  relative viability: 0.59
NCI-H647; first compound 2.53 µM
  relative viability: 0.403
NCI-H647; first compound 8 µM
  relative viability: 0.285
NCI-H661; first compound 0.08 µM
  relative viability: 0.41
NCI-H661; first compound 0.8 µM
  relative viability: 0.44
NCI-H661; first compound 2.53 µM
  relative viability: 0.348
NCI-H661; first compound 8 µM
  relative viability: 0.481
NCI-H727; first compound 0.08 µM
  relative viability: 0.359
NCI-H727; first compound 0.8 µM
  relative viability: 0.526
NCI-H727; first compound 2.53 µM
  relative viability: 0.355
NCI-H727; first compound 8 µM
  relative viability: 0.51
NCI-H838; first compound 0.08 µM
  relative viability: 0.49
NCI-H838; first compound 0.8 µM
  relative viability: 0.573
NCI-H838; first compound 2.53 µM
  relative viability: 0.43
NCI-H838; first compound 8 µM
  relative viability: 0.479
UMC-11; first compound 0.08 µM
  relative viability: 0.852
UMC-11; first compound 0.8 µM
  relative viability: 1
UMC-11; first compound 2.53 µM
  relative viability: 1.11
UMC-11; first compound 8 µM
  relative viability: 0.667

Source: the supplement of paper PMC10307832
